Consider seven compounds from patent US20250188082A1, “Use of Hypoxanthine Compound In Preparation of Drug For Treating Pulmonary Fibrosis” (Sichuan Yiasuo Pharmaceutical Technology Co., Ltd., priority 2022, published 2025).

What all share (assay type): in vivo, C57BL/6 mice
The test system of assay [1] is Streptococcus pneumoniae-induced pulmonary fibrosis model. The assay can be described thus: Streptococcus pneumoniae-induced pulmonary fibrosis model. To be noted: for Leucocyte / Lymphocyte / Neutrophil / Ashcroft scores: Streptococcus pneumoniae + bleomycin, 120 mg/kg/d intragastric, 14 days; for Leucocyte / Lymphocyte / Neutrophil: blood, Day 15, 3 times every day, from one week after model; for Ashcroft scores: lung tissue HE staining; for inhibition (anti-inflammatory) effect on leucocytes, neutrophils and lymphocytes in blood: mice with Streptococcus pneumoniae-induced pulmonary fibrosis, result in words.

The test system of assay [2] is mycoplasma-induced pulmonary fibrosis model (MPFH strain). Kind of assay: Mycoplasma-induced pulmonary fibrosis model. The settings on record: 120 mg/kg/d intragastric, 14 days; for Leucocyte / Lymphocyte / Neutrophil: MPFH mycoplasma + bleomycin, once a day, from two weeks after model; for Ashcroft scores: mycoplasma + bleomycin, lung tissue HE. The source says: Experimental method: an in-vivo mycoplasma-induced pulmonary fibrosis model was established: C57BL/6 mice (with weights being 22-25 g) were randomly and evenly divided into a plurality of groups, including blank control group, model group, Nintedanib positive control group, hypoxanthine analogue A group, hypoxanthine analogue B group, hypoxanthine analogue C group, compound 1 group, compound 2 group . . . compound 12 group, with 9 mice in each group. Before a model was established, the mice were anesthetized with diethyl ether. In addition to that the mice in blank control group with instilled with 100 μL of normal saline nasally, the mice in other groups with slowly instilled with an equal volume of a MPFH strain solution (containing 1×10^7 mL^−1 MPFH strain) to the nasal cavity, for consecutive 3 days, and inhaled the MPFH strain solution into bronchi. After instillation with mycoplasmas through tracheas, the mice received 5 mg/kg bleomycin through tracheas to induce their pulmonary fibrosis. After the model was established for two weeks, the mice in each group were intragastrically administrated for intervention for consecutive 14 days; the mice in blank control group and model group intragastrically received an equal dosage of normal saline as those in drug groups; the mice in Nintedanib positive control group received Nintedanib (120 mg/kg); the mice in hypoxanthine analogue A group, hypoxanthine analogue B group and hypoxanthine analogue C group respectively received hypoxanthine analogue A (120 mg/kg/d), hypoxanthine analogue B (120 mg/kg/d) and hypoxanthine analogue C (120 mg/kg/d); and the mice in compound 1 group, compound 2 group . . . compound 12 group respectively received compound 1 (120 mg/kg/d), compound 2 (120 mg/kg/d) . . . compound 12 (120 mg/kg/d) prepared in example 1. The mice were administrated once a day to be treated for consecutive 14 days. The mice were observed every day, and their weights and death conditions were recorded. On the last day of administration, the mice were sacrificed; and blood was taken from eyeballs and kept at −80° C. for detecting blood routine indexes. Meanwhile, lungs were lavaged with normal saline and separated to collect lavage fluids for detecting counts and classes of leucocytes; and lung tissues were taken for HE straining and Ashcroft scoring on the extent of pulmonary fibrosis.

The test system of assay [3] is influenza A virus-induced pulmonary fibrosis model (FM1 strain of influenza A (H1N1) virus). The assay can be described thus: Influenza A virus-induced pulmonary fibrosis model. The settings on record: 120 mg/kg/d intragastric, 14 days; for Ashcroft scores: influenza A virus + bleomycin, lung tissue HE; for IL-1β / IL-6 / NF-κB / TNF-α: serum, influenza A (H1N1) FM1 + bleomycin, from two weeks after model. An excerpt: Experimental method: an in-vivo influenza A virus-induced pulmonary fibrosis model was established: C57BL/6 mice (with weights being 22-25 g) were randomly and evenly divided into a plurality of groups, including blank control group, model group, Nintedanib positive control group, hypoxanthine analogue A group, hypoxanthine analogue B group, hypoxanthine analogue C group, compound 1 group, compound 2 group . . . compound 12 group, with 9 mice in each group. On Day 1, the mice in blank control group were instilled with normal saline nasally, and the mice in other groups were all infected with a FM1 strain of an influenza A (H1N1) virus 30 (μL) through nasal instillation. On Day 2, the mice received 5 mg/kg bleomycin through tracheas to induce their pulmonary fibrosis. After the model was established for two weeks, the mice in each group were intragastrically administrated for intervention for consecutive 14 days; the mice in blank control group and model group intragastrically received the same dosage of the normal saline as those in drug groups; the mice in Nintedanib positive control group received Nintedanib (120 mg/kg); the mice in hypoxanthine analogue A group, hypoxanthine analogue B group and hypoxanthine analogue C group respectively received hypoxanthine analogue A (120 mg/kg/d), hypoxanthine analogue B (120 mg/kg/d) and hypoxanthine analogue C (120 mg/kg/d); and the mice in compound 1 group, compound 2 group . . . compound 12 group respectively received compound 1 (120 mg/kg/d), compound 2 (120 mg/kg/d) . . . compound 12 (120 mg/kg/d) prepared in example 1. After administration for consecutive 14 days, the mice were observed every day, and their weights and death conditions were recorded. After administration, blood was taken from eyeballs for immediately detecting the expression levels of NF-κB, TNF-α, IL-1 and IL-6 in serum, and lung tissues were taken for HE detection and Ashcroft scoring.

Assay [4] concerns bleomycin-induced pulmonary fibrosis model. Kind of assay: Advanced pulmonary fibrosis: bleomycin-induced model, dosing from three weeks after modelling. To be noted: for Leucocyte / Lymphocyte / Neutrophil / Ashcroft scores: advanced pulmonary fibrosis, 120 mg/kg/d intragastric, 14 days, from three weeks after model; for Leucocyte / Lymphocyte / Neutrophil: blood, Day 15, twice every day; for Ashcroft scores: lung tissue HE staining; for inhibition (anti-inflammatory) effect on leucocytes, neutrophils and lymphocytes in blood: mice with advanced pulmonary fibrosis, result in words.

The structures appear in SMILES notation.

Consider `CCOc1ncnc2c1ncn2C(C)C` [Compound 8], for which, in assay [1], the Leucocyte is listed as 6.68 10^9/L, the Lymphocyte is listed as 8.09 10^9/L, the Neutrophil is reported as 1.94 10^9/L and the Ashcroft scores is given as 1.31. Besides, in assay [2], the Leucocyte is given as 7.26 10^9/L, the Lymphocyte was 72.52 10^9/L, the Neutrophil is listed as 23.62 10^9/L and the Ashcroft scores is recorded as 1.26. Also, in assay [3], the Ashcroft scores is listed as 1.28, the IL-1β is 28.6 pg/mL, the IL-6 amounted to 66.0 pg/mL and the NF-κB was 26.8 pg/mL. The TNF-α in assay [3] amounted to 89.9 pg/mL. Moreover, in assay [4], the Leucocyte is reported as 4.59 10^9/L, the Lymphocyte was 5.73 10^9/L, the Neutrophil is given as 1.42 10^9/L and the Ashcroft scores came out at 1.21.
Consider `CCCOc1ncnc2c1ncn2C(C)C` [Compound 9], for which, in assay [1], the Leucocyte is on record as 6.73 10^9/L, the Lymphocyte is on record as 7.11 10^9/L, the Neutrophil is reported as 1.89 10^9/L and the Ashcroft scores is listed as 1.33. For the same compound, in assay [2], the Leucocyte is 6.79 10^9/L, the Lymphocyte is recorded as 73.19 10^9/L, the Neutrophil is recorded as 22.06 10^9/L and the Ashcroft scores stood at 1.38. Moreover, in assay [3], the Ashcroft scores is listed as 1.33, the IL-1β was determined as 28.4 pg/mL, the IL-6 is on record as 65.8 pg/mL and the NF-κB is 27.1 pg/mL. The TNF-α in assay [3] is on record as 91.1 pg/mL. In assay [4], the Leucocyte was 4.69 10^9/L, the Lymphocyte was 5.69 10^9/L, the Neutrophil is 1.46 10^9/L and the Ashcroft scores turned out to be 1.11.
Regarding `CC(C)Oc1ncnc2c1N(C(C)C)CN2C(C)C` [Compound 10], in assay [1], the Leucocyte is given as 7.01 10^9/L, the Lymphocyte is 7.33 10^9/L, the Neutrophil is recorded as 1.99 10^9/L and the Ashcroft scores is listed as 1.38. Further, in assay [2], the Leucocyte is 6.18 10^9/L, the Lymphocyte is 72.54 10^9/L, the Neutrophil is given as 21.11 10^9/L and the Ashcroft scores came out at 1.45. In addition, in assay [3], the Ashcroft scores is 1.30, the IL-1β came to 29.3 pg/mL, the IL-6 is on record as 64.9 pg/mL and the NF-κB stood at 27.7 pg/mL. Moreover, the TNF-α in assay [3] was found to be 89.6 pg/mL. In assay [4], the Leucocyte is reported as 4.26 10^9/L, the Lymphocyte was 5.71 10^9/L, the Neutrophil is on record as 1.38 10^9/L and the Ashcroft scores stood at 1.16.
Consider `CC(=O)Oc1ncnc2c1ncn2C(C)C` [Compound 11], for which, in assay [1], the Leucocyte was 6.29 10^9/L, the Lymphocyte is recorded as 6.21 10^9/L, the Neutrophil is 1.81 10^9/L and the Ashcroft scores is reported as 1.28. For the same compound, in assay [2], the Leucocyte is recorded as 6.70 10^9/L, the Lymphocyte is listed as 73.25 10^9/L, the Neutrophil is reported as 22.47 10^9/L and the Ashcroft scores is given as 1.50. For the same compound, in assay [3], the Ashcroft scores is 1.26, the IL-1β is 27.9 pg/mL, the IL-6 stood at 64.6 pg/mL and the NF-κB stood at 26.6 pg/mL. Further, the TNF-α in assay [3] is 88.7 pg/mL. In addition, in assay [4], the Leucocyte was 4.22 10^9/L, the Lymphocyte is on record as 5.57 10^9/L, the Neutrophil was 1.39 10^9/L and the Ashcroft scores came to 1.07.
`CCC(=O)Oc1ncnc2c1ncn2C(C)C` [Compound 12]: in assay [1], the Leucocyte is 7.04 10^9/L, the Lymphocyte is 7.23 10^9/L, the Neutrophil was 1.97 10^9/L and the Ashcroft scores turned out to be 1.39. Also, in assay [2], the Leucocyte is 6.12 10^9/L, the Lymphocyte is on record as 74.46 10^9/L, the Neutrophil is listed as 21.68 10^9/L and the Ashcroft scores worked out at 1.12. For the same compound, in assay [3], the Ashcroft scores is listed as 1.31, the IL-1β amounted to 29.9 pg/mL, the IL-6 is 64.7 pg/mL and the NF-κB amounted to 28.1 pg/mL. Besides, the TNF-α in assay [3] is recorded as 90.8 pg/mL. For the same compound, in assay [4], the Leucocyte is on record as 4.04 10^9/L, the Lymphocyte is listed as 5.65 10^9/L, the Neutrophil is 1.23 10^9/L and the Ashcroft scores worked out at 1.13.
Take `O=c1[nH]cnc2[nH]cnc12` [Hypoxanthine analogue A, reference compound]: in assay [1], the Leucocyte was 155.12 10^9/L, the Lymphocyte was 90.75 10^9/L, the Neutrophil is given as 89.99 10^9/L and the Ashcroft scores stood at 6.12. Besides, in assay [1], the “inhibition (anti-inflammatory) effect on leucocytes, neutrophils and lymphocytes in blood” value (“inhibition (anti-inflammatory) effect” for short) is on record as “obviously inferior”. For the same compound, in assay [2], the Leucocyte is listed as 116.79 10^9/L, the Lymphocyte is recorded as 567.15 10^9/L, the Neutrophil is listed as 234.53 10^9/L and the Ashcroft scores is given as 6.64. Moreover, in assay [3], the Ashcroft scores is given as 6.11, the IL-1β is recorded as 323.1 pg/mL, the IL-6 amounted to 450.9 pg/mL and the NF-κB is on record as 780.3 pg/mL. Further, the TNF-α in assay [3] is 339.4 pg/mL. Besides, in assay [4], the Leucocyte is 66.48 10^9/L, the Lymphocyte is 71.65 10^9/L, the Neutrophil was 67.48 10^9/L and the Ashcroft scores worked out at 5.88. The “inhibition (anti-inflammatory) effect” value in assay [4] is recorded as “obviously inferior”.
Regarding `CC(C)Oc1ncnc2c1ncn2C` [Hypoxanthine analogue B, reference compound], in assay [1], the Leucocyte was 156.11 10^9/L, the Lymphocyte is given as 91.01 10^9/L, the Neutrophil was 89.86 10^9/L and the Ashcroft scores was 6.14. For the same compound, the “inhibition (anti-inflammatory) effect” value in assay [1] is reported as “obviously inferior”. In addition, in assay [2], the Leucocyte was 118.58 10^9/L, the Lymphocyte is reported as 568.05 10^9/L, the Neutrophil is listed as 233.92 10^9/L and the Ashcroft scores is reported as 6.30. Besides, in assay [3], the Ashcroft scores is recorded as 6.07, the IL-1β was 329.7 pg/mL, the IL-6 was 422.7 pg/mL and the NF-κB came out at 771.9 pg/mL. For the same compound, the TNF-α in assay [3] is given as 341.6 pg/mL. In assay [4], the Leucocyte is on record as 71.35 10^9/L, the Lymphocyte is listed as 67.37 10^9/L, the Neutrophil is 68.34 10^9/L and the Ashcroft scores amounted to 6.01. In addition, the “inhibition (anti-inflammatory) effect” value in assay [4] is recorded as “obviously inferior”.
